Values of other authors, collected in patent US20250333447A1, “CHIMERIC SMALL MOLECULES FOR LABELING PROTEINS WITH IMMUNOGENIC MOIETIES AND METHODS OF USE THEREOF” (The Brigham and Women's Hospital, Inc., priority 2022, published 2025).

Key:
PSMA = PSMA (Homo sapiens, UniProt Q04609)
HSP90 = conditions: cell free assay

Chain of PSMA (Q04609 whole entry, species assumed): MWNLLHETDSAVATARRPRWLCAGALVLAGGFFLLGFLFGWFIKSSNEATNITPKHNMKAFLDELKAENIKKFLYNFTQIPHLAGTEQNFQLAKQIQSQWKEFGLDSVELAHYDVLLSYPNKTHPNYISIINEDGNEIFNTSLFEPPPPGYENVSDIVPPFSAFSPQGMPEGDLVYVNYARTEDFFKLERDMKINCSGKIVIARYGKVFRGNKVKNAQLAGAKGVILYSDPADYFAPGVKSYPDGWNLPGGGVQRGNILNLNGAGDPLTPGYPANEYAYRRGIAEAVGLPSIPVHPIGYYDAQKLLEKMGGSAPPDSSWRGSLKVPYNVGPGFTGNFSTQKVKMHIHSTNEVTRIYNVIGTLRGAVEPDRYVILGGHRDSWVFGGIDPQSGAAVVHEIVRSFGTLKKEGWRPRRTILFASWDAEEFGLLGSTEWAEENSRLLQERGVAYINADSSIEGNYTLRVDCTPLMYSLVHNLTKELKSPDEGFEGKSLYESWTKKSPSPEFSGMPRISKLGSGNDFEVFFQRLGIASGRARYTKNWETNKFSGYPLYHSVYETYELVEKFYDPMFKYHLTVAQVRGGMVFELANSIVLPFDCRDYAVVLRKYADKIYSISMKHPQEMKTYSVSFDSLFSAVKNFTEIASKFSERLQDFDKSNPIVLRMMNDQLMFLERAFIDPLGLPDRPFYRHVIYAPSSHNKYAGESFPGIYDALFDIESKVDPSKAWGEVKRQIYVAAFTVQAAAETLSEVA

Structure (SMILES)	Ki (PSMA)	IC50 (HSP90)
O=C(O)CC[C@H](NC(=O)N[C@@H](CCC(=O)O)C(=O)O)C(=O)O [DUPA]	8 nM	
CO[C@H]1/C=C\C=C(/C)C(=O)NC2=CC(=O)C(NCCN(C)C)=C(C[C@@H](C)C[C@H](OC)[C@H](O)[C@@H](C)/C=C(\C)[C@@H]1OC(N)=O)C2=O [Alvespimycin]		62 nM
